From patent US20250332178A1, “METHODS OF TREATING MYCOBACTERIAL INFECTIONS USING TETRACYCLINE COMPOUNDS” (priority 2018, published 2025)
Converted amounts (≈) assume the structure as drawn.

Tests used:
M. intracellulare = assay: MIC (CLSI broth dilution), slow-growing NTM isolates; type: cell-based
M. arupense = assay: as above; type: cell-based; conditions: isolate 11, Other
M. chimaera = assay: as above; type: cell-based
M. avium = assay: as above; type: cell-based
[1] = system: slow-growing NTM isolates; assay: MIC (CLSI broth dilution), all slow-growing NTM isolates; type: cell-based, nontuberculous mycobacteria; conditions: all slow-growing NTM isolates
M. abscessus = conditions: strains of M. abscessus; Wallace et al.; cited from earlier work

NCC[C@H](O)C(=O)N[C@@H]1C[C@H](N)[C@@H](O[C@H]2O[C@H](CN)[C@@H](O)[C@H](O)[C@H]2O)[C@H](O)[C@H]1O[C@H]1O[C@H](CO)[C@@H](O)[C@H](N)[C@H]1O [Amikacin, amikacin]
MIC (M. intracellulare; isolate 6, MAC): 8 µg/mL (≈ 13.7 µM) | MIC (M. intracellulare; isolate 7, MAC): 8 µg/mL (≈ 13.7 µM) | MIC (M. intracellulare; isolate 8, MAC): 16 µg/mL (≈ 27.3 µM) | MIC (M. intracellulare; isolate 9, MAC): 16 µg/mL (≈ 27.3 µM) | MIC (M. intracellulare; isolate 10, MAC): 16 µg/mL (≈ 27.3 µM) | MIC (M. arupense): 8 µg/mL (≈ 13.7 µM) | MIC (M. chimaera; isolate 4, MAC): 8 µg/mL (≈ 13.7 µM) | MIC (M. chimaera; isolate 5, MAC): 8 µg/mL (≈ 13.7 µM) | MIC (M. avium; isolate 1, MAC): 32 µg/mL (≈ 54.6 µM) | MIC (M. avium; isolate 2, MAC): 16 µg/mL (≈ 27.3 µM) | MIC (M. avium; isolate 3, MAC): 8 µg/mL (≈ 13.7 µM) | MIC50 [1]: 16 µg/mL (≈ 27.3 µM) | MIC90 [1]: 32 µg/mL (≈ 54.6 µM)

C[C@H]1c2cccc(O)c2C(=O)C2=C(O)[C@]3(O)C(=O)C(C(N)=O)=C(O)[C@@H](N(C)C)[C@@H]3[C@@H](O)[C@@H]21 [Doxycycline, doxycycline]
MIC (M. arupense): 16 µg/mL (≈ 36 µM) | in vitro activity (in words) (M. abscessus): very low activity
